Legend:
Test in all cases: relative viability (nuclei count vs DMSO), 5 days (fraction); higher = more cells survive
[1] = compound: C1CC(C1)(C(=O)O)C(=O)O.[NH2-].[NH2-].[Pt+2] [Carboplatin] + CC(=O)c1c(C)c2cnc(Nc3ccc(N4CCNCC4)cn3)nc2n(C2CCCC2)c1=O [Palbociclib] (partner 0.5 µM)
Method in brief: (§1)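 Each reported value is a median over duplicate plates. It expresses relative viability: treated-well nuclei count divided by vehicle-well nuclei count. Lung cancer cell lines in 1536-well plates were dosed by pin tool a day after seeding, alone with one drug or with a fixed anchor-drug dose plus five library-drug doses (not always all listed) in √10 steps, and nuclei were counted after 5 days.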

GSK126 + Phenformin = compound: CC[C@H](C)N1C=C(C2=C(C=C(C=C21)C3=CN=C(C=C3)N4CCNCC4)C(=O)NCC5=C(C=C(NC5=O)C)C)C [GSK126] + N=C(N)NC(=N)NCCc1ccccc1 [Phenformin] (partner 250 µM)
Method in brief: as §1

GSK126 + Olaparib = compound: CC[C@H](C)N1C=C(C2=C(C=C(C=C21)C3=CN=C(C=C3)N4CCNCC4)C(=O)NCC5=C(C=C(NC5=O)C)C)C [GSK126] + O=C(c1cc(Cc2n[nH]c(=O)c3ccccc23)ccc1F)N1CCN(C(=O)C2CC2)CC1 [Olaparib] (partner 8 µM)
Method in brief: as §1

MLN4924 + Phenformin = compound: NS(=O)(=O)OC[C@@H]1C[C@@H](n2ccc3c(N[C@H]4CCc5ccccc54)ncnc32)C[C@@H]1O [MLN4924] + N=C(N)NC(=N)NCCc1ccccc1 [Phenformin] (partner 250 µM)
Method in brief: as §1

Cell Line: NCI-H1792
- relative viability ([1]; first compound 0.08 µM): 0.674
- relative viability ([1]; first compound 0.253 µM): 0.607
- relative viability ([1]; first compound 0.8 µM): 0.639
- relative viability ([1]; first compound 2.53 µM): 0.616
- relative viability ([1]; first compound 8 µM): 0.569
- relative viability (GSK126 + Phenformin; first compound 0.08 µM): 0.344
- relative viability (GSK126 + Phenformin; first compound 0.8 µM): 0.262
- relative viability (GSK126 + Phenformin; first compound 2.53 µM): 0.255
- relative viability (GSK126 + Phenformin; first compound 8 µM): 0.228
- relative viability (GSK126 + Olaparib; first compound 0.08 µM): 0.471
- relative viability (GSK126 + Olaparib; first compound 0.253 µM): 0.351
- relative viability (GSK126 + Olaparib; first compound 0.8 µM): 0.507
- relative viability (GSK126 + Olaparib; first compound 2.53 µM): 0.374
- relative viability (GSK126 + Olaparib; first compound 8 µM): 0.551
- relative viability (MLN4924 + Phenformin; first compound 0.04 µM): 0.403
- relative viability (MLN4924 + Phenformin; first compound 0.1265 µM): 0.324
- relative viability (MLN4924 + Phenformin; first compound 0.4 µM): 0.725
- relative viability (MLN4924 + Phenformin; first compound 1.265 µM): 0.258
- relative viability (MLN4924 + Phenformin; first compound 4 µM): 0.217

Cell Line: NCI-H2009
- relative viability ([1]; first compound 0.08 µM): 0.203
- relative viability ([1]; first compound 0.253 µM): 0.202
- relative viability ([1]; first compound 0.8 µM): 0.182
- relative viability ([1]; first compound 2.53 µM): 0.207
- relative viability ([1]; first compound 8 µM): 0.183
- relative viability (GSK126 + Phenformin; first compound 0.08 µM): 0.506
- relative viability (GSK126 + Phenformin; first compound 0.253 µM): 0.467
- relative viability (GSK126 + Phenformin; first compound 0.8 µM): 0.442
- relative viability (GSK126 + Phenformin; first compound 2.53 µM): 0.43
- relative viability (GSK126 + Phenformin; first compound 8 µM): 0.359
- relative viability (GSK126 + Olaparib; first compound 0.08 µM): 0.755
- relative viability (GSK126 + Olaparib; first compound 0.253 µM): 0.653
- relative viability (GSK126 + Olaparib; first compound 0.8 µM): 0.714
- relative viability (GSK126 + Olaparib; first compound 2.53 µM): 0.588
- relative viability (GSK126 + Olaparib; first compound 8 µM): 0.713
- relative viability (MLN4924 + Phenformin; first compound 0.04 µM): 0.24
- relative viability (MLN4924 + Phenformin; first compound 0.1265 µM): 0.184
- relative viability (MLN4924 + Phenformin; first compound 0.4 µM): 0.156
- relative viability (MLN4924 + Phenformin; first compound 1.265 µM): 0.0904
- relative viability (MLN4924 + Phenformin; first compound 4 µM): 0.0791

Cell Line: NCI-H2405
- relative viability ([1]; first compound 0.08 µM): 0.552
- relative viability ([1]; first compound 0.253 µM): 0.542
- relative viability ([1]; first compound 0.8 µM): 0.542
- relative viability ([1]; first compound 2.53 µM): 0.543
- relative viability ([1]; first compound 8 µM): 0.449
- relative viability (GSK126 + Phenformin; first compound 0.08 µM): 0.394
- relative viability (GSK126 + Phenformin; first compound 0.253 µM): 0.384
- relative viability (GSK126 + Phenformin; first compound 0.8 µM): 0.365
- relative viability (GSK126 + Phenformin; first compound 2.53 µM): 0.328
- relative viability (GSK126 + Phenformin; first compound 8 µM): 0.304
- relative viability (GSK126 + Olaparib; first compound 0.08 µM): 0.887
- relative viability (GSK126 + Olaparib; first compound 0.253 µM): 0.84
- relative viability (GSK126 + Olaparib; first compound 0.8 µM): 0.844
- relative viability (GSK126 + Olaparib; first compound 2.53 µM): 0.89
- relative viability (GSK126 + Olaparib; first compound 8 µM): 0.744
- relative viability (MLN4924 + Phenformin; first compound 0.04 µM): 0.403
- relative viability (MLN4924 + Phenformin; first compound 0.1265 µM): 0.446
- relative viability (MLN4924 + Phenformin; first compound 0.4 µM): 0.362
- relative viability (MLN4924 + Phenformin; first compound 1.265 µM): 0.284
- relative viability (MLN4924 + Phenformin; first compound 4 µM): 0.306

Cell Line: SK-MES-1
- relative viability ([1]; first compound 0.08 µM): 0.354
- relative viability ([1]; first compound 0.253 µM): 0.298
- relative viability ([1]; first compound 0.8 µM): 0.316
- relative viability ([1]; first compound 2.53 µM): 0.329
- relative viability ([1]; first compound 8 µM): 0.315
- relative viability (GSK126 + Phenformin; first compound 0.08 µM): 0.743
- relative viability (GSK126 + Phenformin; first compound 0.253 µM): 0.673
- relative viability (GSK126 + Phenformin; first compound 0.8 µM): 0.635
- relative viability (GSK126 + Phenformin; first compound 2.53 µM): 0.526
- relative viability (GSK126 + Phenformin; first compound 8 µM): 0.535
- relative viability (GSK126 + Olaparib; first compound 0.08 µM): 0.798
- relative viability (GSK126 + Olaparib; first compound 0.253 µM): 0.787
- relative viability (GSK126 + Olaparib; first compound 0.8 µM): 0.721
- relative viability (GSK126 + Olaparib; first compound 2.53 µM): 0.724
- relative viability (GSK126 + Olaparib; first compound 8 µM): 0.657
- relative viability (MLN4924 + Phenformin; first compound 0.04 µM): 0.555
- relative viability (MLN4924 + Phenformin; first compound 0.1265 µM): 0.444
- relative viability (MLN4924 + Phenformin; first compound 0.4 µM): 0.309
- relative viability (MLN4924 + Phenformin; first compound 1.265 µM): 0.202
- relative viability (MLN4924 + Phenformin; first compound 4 µM): 0.2

Cell Line: NCI-H1563
- relative viability (GSK126 + Phenformin; first compound 0.08 µM): 0.665
- relative viability (GSK126 + Phenformin; first compound 0.253 µM): 0.676
- relative viability (GSK126 + Phenformin; first compound 0.8 µM): 0.654
- relative viability (GSK126 + Phenformin; first compound 2.53 µM): 0.596
- relative viability (GSK126 + Phenformin; first compound 8 µM): 0.646
- relative viability (MLN4924 + Phenformin; first compound 0.04 µM): 0.832
- relative viability (MLN4924 + Phenformin; first compound 0.1265 µM): 0.87
- relative viability (MLN4924 + Phenformin; first compound 0.4 µM): 0.666
- relative viability (MLN4924 + Phenformin; first compound 1.265 µM): 0.498
- relative viability (MLN4924 + Phenformin; first compound 4 µM): 0.57

Cell Line: NCI-H1648
- relative viability ([1]; first compound 0.08 µM): 0.239
- relative viability ([1]; first compound 0.253 µM): 0.291
- relative viability ([1]; first compound 0.8 µM): 0.264
- relative viability ([1]; first compound 2.53 µM): 0.302
- relative viability ([1]; first compound 8 µM): 0.3
- relative viability (GSK126 + Olaparib; first compound 0.08 µM): 1.01
- relative viability (GSK126 + Olaparib; first compound 0.253 µM): 1.22
- relative viability (GSK126 + Olaparib; first compound 0.8 µM): 0.774
- relative viability (GSK126 + Olaparib; first compound 2.53 µM): 1.1
- relative viability (GSK126 + Olaparib; first compound 8 µM): 0.908

Cell Line: IA-LM
- relative viability (GSK126 + Olaparib; first compound 0.08 µM): 1.03
- relative viability (GSK126 + Olaparib; first compound 0.253 µM): 0.832
- relative viability (GSK126 + Olaparib; first compound 0.8 µM): 0.99
- relative viability (GSK126 + Olaparib; first compound 2.53 µM): 0.759
- relative viability (GSK126 + Olaparib; first compound 8 µM): 0.75

Cell Line: NCI-H596
- relative viability (GSK126 + Phenformin; first compound 0.08 µM): 0.913
- relative viability (GSK126 + Phenformin; first compound 0.253 µM): 0.761
- relative viability (GSK126 + Phenformin; first compound 0.8 µM): 0.751
- relative viability (GSK126 + Phenformin; first compound 2.53 µM): 0.948
- relative viability (GSK126 + Phenformin; first compound 8 µM): 0.829
- relative viability (GSK126 + Olaparib; first compound 0.08 µM): 0.713
- relative viability (GSK126 + Olaparib; first compound 0.253 µM): 0.703
- relative viability (GSK126 + Olaparib; first compound 0.8 µM): 0.702
- relative viability (GSK126 + Olaparib; first compound 2.53 µM): 0.847
- relative viability (GSK126 + Olaparib; first compound 8 µM): 0.758
- relative viability (MLN4924 + Phenformin; first compound 0.04 µM): 0.751
- relative viability (MLN4924 + Phenformin; first compound 0.1265 µM): 0.914
- relative viability (MLN4924 + Phenformin; first compound 1.265 µM): 0.835
- relative viability (MLN4924 + Phenformin; first compound 4 µM): 0.763

Cell Line: Calu-6
- relative viability (GSK126 + Olaparib; first compound 0.08 µM): 0.604
- relative viability (GSK126 + Olaparib; first compound 0.253 µM): 0.664
- relative viability (GSK126 + Olaparib; first compound 2.53 µM): 0.612
- relative viability (GSK126 + Olaparib; first compound 8 µM): 0.577

Cell Line: NCI-H1703
- relative viability (GSK126 + Olaparib; first compound 0.08 µM): 0.576
- relative viability (GSK126 + Olaparib; first compound 0.253 µM): 0.351
- relative viability (GSK126 + Olaparib; first compound 0.8 µM): 0.694
- relative viability (GSK126 + Olaparib; first compound 2.53 µM): 0.455
- relative viability (GSK126 + Olaparib; first compound 8 µM): 0.492

Cell Line: EBC-1
- relative viability (GSK126 + Olaparib; first compound 0.08 µM): 0.743
- relative viability (GSK126 + Olaparib; first compound 0.253 µM): 0.711
- relative viability (GSK126 + Olaparib; first compound 0.8 µM): 0.702
- relative viability (GSK126 + Olaparib; first compound 2.53 µM): 0.684
- relative viability (GSK126 + Olaparib; first compound 8 µM): 0.615

Cell Line: A549
- relative viability (GSK126 + Phenformin; first compound 0.08 µM): 0.245
- relative viability (GSK126 + Phenformin; first compound 0.253 µM): 0.169
- relative viability (GSK126 + Phenformin; first compound 0.8 µM): 0.126
- relative viability (GSK126 + Phenformin; first compound 2.53 µM): 0.131
- relative viability (GSK126 + Phenformin; first compound 8 µM): 0.114
- relative viability (GSK126 + Olaparib; first compound 0.08 µM): 0.361
- relative viability (GSK126 + Olaparib; first compound 0.253 µM): 0.297
- relative viability (GSK126 + Olaparib; first compound 0.8 µM): 0.336
- relative viability (GSK126 + Olaparib; first compound 2.53 µM): 0.333
- relative viability (GSK126 + Olaparib; first compound 8 µM): 0.368
- relative viability (MLN4924 + Phenformin; first compound 0.04 µM): 0.0967
- relative viability (MLN4924 + Phenformin; first compound 0.1265 µM): 0.154
- relative viability (MLN4924 + Phenformin; first compound 0.4 µM): 0.0425
- relative viability (MLN4924 + Phenformin; first compound 1.265 µM): 0.0445
- relative viability (MLN4924 + Phenformin; first compound 4 µM): 0.0437

Reference: the supplement of paper PMC10307832
